Earlier results as cited in US20160287529A1, “METHOD FOR TREATING AND PREVENTING RECURRENT INTERDIGITAL TINEA PEDIS (ATHLETE'S FOOT) DISEASE” (priority 2015, published 2016).

System: fungal infections of the skin and nails of the human foot
Details: topical treatment

| SMILES | effectiveness compared with the allylamines |
| --- | --- |
| Cc1cccc(N(C)C(=S)Oc2ccc3ccccc3c2)c1 [tolnaftate] | less effective |
| C=CCCCCCCCCC(=O)O [undecenoic acid] | less effective |
